The test system of series [1] is H. pylori. Briefly: MIC against H. pylori, agar dilution method. Type of series: cell-based, Helicobacter pylori. The conditions noted are these: Helicobacter pylori, ATCC43504; H. pylori ATCC 43504, agar dilution; read-out: MIC value against H. pylori ± SEM.
In series [2] the test system is H. pylori. In words: IC50 against H. pylori, micro broth dilution test. Type of series: cell-based, Helicobacter pylori. The conditions noted are these: Helicobacter pylori, ATCC43504; H. pylori ATCC 43504, micro broth dilution, 72 h, OD 600 nm; read-out: IC50 value against H. pylori ± SEM.
The next series deals with T1, Jack bean urease (Canavalia ensiformis, UniProt P07374).
T1 construct: purchased Sigma Aldrich
In words: biochemical. In kind it is biochemical. The method, then:
Reaction mixture comprising 40 μL of buffer (K2HPO4: 10 mmol/L, urea: 100 mmol/L, […]: 10 mmol/L, EDTA: 1 /L mmol, pH = 8.2) and 5 U/mL enzyme (10 μL) were pre-incubated with 10 μL of synthesized compounds (1 mM) and substrate urea (1 mM) were incubated at room temperature in 96 well plate for half an hour. After the incubation at room temperature, absorbance was taken at specific wavelength (630 nm) employing a microplate reader (Bio-Tek, USA) with R1 and R2 reagents in each well. The reactions were measured in triplicate fashion. To calculate the inhibition percentage following equation was used.
Percentage inhibition = 100 –[tested compound/control compound] × 100.

This passage reports melting point, MIC and IC50 results from paper PMC10237672, “Design and synthesis of novel anti-urease imidazothiazole derivatives with promising antibacterial activity against Helicobacter pylori” (PLOS ONE, 2023).

Each structure is given as a SMILES string. Values after ≈ are worked out from the molar mass of the structure shown. Counter-ions that a name gives are not always drawn. Like-named read-outs stand apart in the source and are kept apart here.

T1 sequence (P07374 whole entry, looked up): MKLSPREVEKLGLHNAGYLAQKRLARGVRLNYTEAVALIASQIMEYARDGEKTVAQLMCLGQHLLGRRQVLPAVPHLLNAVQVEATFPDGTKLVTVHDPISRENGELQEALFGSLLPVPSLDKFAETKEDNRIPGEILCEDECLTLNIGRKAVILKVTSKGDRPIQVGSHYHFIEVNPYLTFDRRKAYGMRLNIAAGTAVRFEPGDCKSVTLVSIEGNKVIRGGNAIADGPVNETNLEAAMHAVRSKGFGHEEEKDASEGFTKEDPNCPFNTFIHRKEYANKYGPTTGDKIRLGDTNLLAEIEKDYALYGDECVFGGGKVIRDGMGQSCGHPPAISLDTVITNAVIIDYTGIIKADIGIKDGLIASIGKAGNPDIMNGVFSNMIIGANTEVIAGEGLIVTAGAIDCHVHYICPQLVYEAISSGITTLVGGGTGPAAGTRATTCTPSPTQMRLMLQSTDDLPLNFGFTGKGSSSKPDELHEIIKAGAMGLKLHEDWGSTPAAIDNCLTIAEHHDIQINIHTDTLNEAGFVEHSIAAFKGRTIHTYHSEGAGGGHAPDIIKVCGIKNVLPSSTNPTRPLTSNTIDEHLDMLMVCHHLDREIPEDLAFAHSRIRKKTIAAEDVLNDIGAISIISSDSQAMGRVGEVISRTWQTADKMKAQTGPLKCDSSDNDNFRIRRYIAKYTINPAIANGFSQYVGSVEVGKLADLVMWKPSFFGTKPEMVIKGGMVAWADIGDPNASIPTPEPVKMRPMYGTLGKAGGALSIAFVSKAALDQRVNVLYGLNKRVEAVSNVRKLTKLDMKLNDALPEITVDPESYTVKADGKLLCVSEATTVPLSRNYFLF

As for `O=S(=O)(Oc1cccc(-c2nc3sccn3c2-c2ccccc2)c1)c1ccccc1` (as salt: benzenesulfonate) [Compound 1e, 3-(5-Phenylimidazo[2,1-b]thiazol-6-yl)phenyl benzenesulfonate], the melting point (in general, the temperature, or range, at which the solid turns liquid) lay within 119 to 122 °C.
Consider `O=S(=O)(Oc1cccc(-c2nc3sccn3c2-c2ccccc2)c1)c1ccc(F)cc1` (as salt: benzenesulfonate) [Compound 1f, 3-(5-Phenylimidazo[2,1-b]thiazol-6-yl)phenyl 4-fluorobenzenesulfonate], for which the melting point lay within 109 to 111 °C.
Turning to `CS(=O)(=O)c1cccc(-c2c(-c3cccc(OS(=O)(=O)c4ccccc4)c3)nc3sccn23)c1` (as salt: benzenesulfonate) [Compound 2e, 3-(5-(3-(Methylsulfonyl)phenyl)imidazo[2,1-b]thiazol-6-yl)phenyl benzenesulfonate], the melting point was 193 to 195 °C.
The same measure, in the same setting: the result for `CS(=O)(=O)c1cccc(-c2c(-c3cccc(OS(=O)(=O)c4ccc(F)cc4)c3)nc3sccn23)c1` (as salt: benzenesulfonate) [Compound 2f, 3-(5-(3-(Methylsulfonyl)phenyl)imidazo[2,1-b]thiazol-6-yl)phenyl 4-fluorobenzenesulfonate] reads 103 to 105 °C.
In turn, `CCS(=O)(=O)Oc1cccc(-c2nc3sccn3c2-c2ccccc2)c1` [Compound 1b, 3-(5-Phenylimidazo[2,1-b]thiazol-6-yl)phenyl ethanesulfonate] came in with a melting point of 119 to 121 °C. In addition, the MIC – broadly, the lowest concentration that inhibits growth of the organism – with H. pylori [1] was found to be 800 µM. Also, the IC50 (in general, the concentration needed to halve the response being measured) in the series with H. pylori [2] worked out at 82 ± 29 µM. In addition, at Jack bean urease, half-maximal inhibition (IC50) was put at 4.01 ± 0.11 µM.
For `CCCS(=O)(=O)Oc1cccc(-c2nc3sccn3c2-c2ccccc2)c1` [Compound 1c, 3-(5-Phenylimidazo[2,1-b]thiazol-6-yl)phenyl propane-1-sulfonate], in that order: 120 to 123 °C, 800 µM (≈ 319 µg/mL), 364 µM and 4.04 ± 0.09 µM.
For `O=S(=O)(Oc1cccc(-c2nc3sccn3c2-c2ccccc2)c1)c1ccccc1` [Compound 1e, 3-(5-Phenylimidazo[2,1-b]thiazol-6-yl)phenyl benzenesulfonate], in the series on H. pylori [1], the MIC amounted to 400 µM. Besides, the IC50 in the series on H. pylori [2] was 153 ± 33 µM; at Jack bean urease, 4.3 ± 0.01 µM.
In the same order, the values of `O=S(=O)(Oc1cccc(-c2nc3sccn3c2-c2ccccc2)c1)c1ccc(F)cc1` [Compound 1f, 3-(5-Phenylimidazo[2,1-b]thiazol-6-yl)phenyl 4-fluorobenzenesulfonate] are 200 µM (≈ 90.1 µg/mL), 147 µM and 5.17 ± 0.01 µM.
`Cc1ccc(S(=O)(=O)Oc2cccc(-c3nc4sccn4c3-c3ccccc3)c2)cc1` [Compound 1g, 3-(5-Phenylimidazo[2,1-b]thiazol-6-yl)phenyl 4-methylbenzenesulfonate] yielded a melting point of 103 to 106 °C. For the same compound, the MIC with H. pylori [1] was determined as 150 ± 29 µM (≈ 67 µg/mL). Moreover, the IC50 in the series with H. pylori [2] came to 37 ± 6 µM. This compound gave an IC50 on Jack bean urease of 3.22 ± 0.06 µM.
In the case of `CNS(=O)(=O)Oc1cccc(-c2nc3sccn3c2-c2ccccc2)c1` [Compound 1i, 3-(5-Phenylimidazo[2,1-b]thiazol-6-yl)phenyl methylsulfamate], the melting point was in the range of 161 to 164 °C. Moreover, in the series on H. pylori [1], the MIC was 800 µM (≈ 308 µg/mL). Besides, the IC50 in the series with H. pylori [2] was determined as 285 ± 92 µM. The compound also showed an IC50 at Jack bean urease of 5.51 ± 0.17 µM.
For `O=S(=O)(Oc1cccc(-c2nc3sccn3c2-c2ccccc2)c1)N1CCCCC1` [Compound 1j, 3-(5-Phenylimidazo[2,1-b]thiazol-6-yl)phenyl piperidine-1-sulfonate], in that order: 112 to 115 °C, 200 µM (≈ 87.9 µg/mL), 131 ± 2 µM and 6.97 ± 0.09 µM.
In turn, `CS(=O)(=O)Oc1cccc(-c2nc3sccn3c2-c2cccc(S(C)(=O)=O)c2)c1` [Compound 2a, 3-(5-(3-(Methylsulfonyl)phenyl)imidazo[2,1-b]thiazol-6-yl)phenyl methanesulfonate] yielded a melting point of 159 to 160 °C. The MIC with H. pylori [1] was 250 ± 50 µM. Besides, the IC50 in the series on H. pylori [2] amounted to 118 ± 5 µM. Further, it took 5.01 ± 0.03 µM to reach half-maximal inhibition on Jack bean urease (IC50).
For `CCS(=O)(=O)Oc1cccc(-c2nc3sccn3c2-c2cccc(S(C)(=O)=O)c2)c1` [Compound 2b, 3-(5-(3-(Methylsulfonyl)phenyl)imidazo[2,1-b]thiazol-6-yl)phenyl ethanesulfonate], in that order: 206 to 209 °C, 800 µM, 255 ± 35 µM and 4.97 ± 0.11 µM.
Consider `CS(=O)(=O)c1cccc(-c2c(-c3cccc(OS(=O)(=O)c4ccccc4)c3)nc3sccn23)c1` [Compound 2e, 3-(5-(3-(Methylsulfonyl)phenyl)imidazo[2,1-b]thiazol-6-yl)phenyl benzenesulfonate], for which the MIC with H. pylori [1] came to 409 ± 391 µM. In addition, the values for the IC50 in the series on H. pylori [2] and at Jack bean urease were 331 ± 21 µM and 5.21 ± 0.03 µM, respectively.
In turn, `Cc1ccc(S(=O)(=O)Oc2cccc(-c3nc4sccn4c3-c3cccc(S(C)(=O)=O)c3)c2)cc1` [Compound 2g, 3-(5-(3-(Methylsulfonyl)phenyl)imidazo[2,1-b]thiazol-6-yl)phenyl 4-methylbenzenesulfonate] came in with a melting point of 172 to 174 °C. In addition, in the series on H. pylori [1], the MIC is 275 ± 125 µM (≈ 144 µg/mL). Also, in the series with H. pylori [2], the half-maximal inhibitory concentration (IC50) is 103 ± 88 µM. Further, it took 5.59 ± 0.04 µM to reach half-maximal inhibition against Jack bean urease (IC50).
For `CS(=O)(=O)c1cccc(-c2c(-c3cccc(OS(N)(=O)=O)c3)nc3sccn23)c1` [Compound 2h, 3-(5-(3-(Methylsulfonyl)phenyl)imidazo[2,1-b]thiazol-6-yl)phenyl sulfamate], in that order: 150 to 153 °C, 400 µM (≈ 180 µg/mL), 225 ± 5 µM and 4.72 ± 0.13 µM.
With `CNS(=O)(=O)Oc1cccc(-c2nc3sccn3c2-c2cccc(S(C)(=O)=O)c2)c1` [Compound 2i, 3-(5-(3-(Methylsulfonyl)phenyl)imidazo[2,1-b]thiazol-6-yl)phenyl methylsulfamate], the melting point is more than 250 °C. The MIC in the series with H. pylori [1] turned out to be 250 ± 50 µM (≈ 116 µg/mL). Also, the IC50 in the series on H. pylori [2] is 123 ± 15 µM. In addition, at Jack bean urease, inhibition was half-maximal at 4.74 ± 0.21 µM (IC50).
In the case of `CS(=O)(=O)c1cccc(-c2c(-c3cccc(OS(=O)(=O)N4CCCCC4)c3)nc3sccn23)c1` [Compound 2j, 3-(5-(3-(Methylsulfonyl)phenyl)imidazo[2,1-b]thiazol-6-yl)phenyl piperidine-1-sulfonate], the melting point lay within 76 to 79 °C. Besides, the MIC with H. pylori [1] worked out at 800 µM (≈ 414 µg/mL). The IC50 with H. pylori [2] was 288 ± 18 µM. The compound also yielded an IC50 at Jack bean urease of 5.82 ± 0.02 µM.
Take `NC(N)=S` [thiourea, reference compound]: the IC50 on Jack bean urease (indophenol method, triplicate, thiourea positive control, read-out: Potency against urease IC50 ± SEM) stood at 22.3 ± 0.031 µM.
